Our source for the IC50 values is patent publication US20250250231A1, “NOVEL SUBSTITUTED 4-AMINO-4-OXO-BUT-2-ENYL DERIVATIVES, PROCESSES FOR THEIR PREPARATION AND THERAPEUTIC USES THEREOF” (SANOFI, priority 2022, published 2025).

Where two headings read alike, the source gives them in different places.

One may read the IC50 as the point on the concentration scale where inhibition reaches its midpoint.

Format in all cases: cell-based
One assay relates to MCF7-WT cells. The experiment in a line: In vitro anti-proliferation assay (CellTiter-Glo viability), MCF7-WT cells. To be noted: MCF7-WT cells supplemented with 0.1 nM b-estradiol, viability on day 8, relative IC50. The procedure: (§1) Test: In vitro anti-proliferation assay
(§2) Said test involves measuring the in vitro anti-proliferation activity of the compounds of the Table 1a.
(§3) The measurements of the anti-proliferation activities were made using MCF7-WT (ATCC), MCF7-Y537S and HCC1428-LTED cells as described hereunder.
(§4) On Day 1, MCF7-WT and MCF7-Y537S (Mol Cancer Ther. 2021 20(2):250-262), and HCC1428-LTED (J Clin Invest. 2010; 120(7):2406-2413) cells, were seeded at 2000 (WT and LTED) and 500 (Y537S) cells/well in phenol red free IMEM (Corning, 110-026-CV) with 5% Charcoal stripped-FBS and incubated overnight 37° C. and 5% CO2.
(§5) On day 2, compounds were tested in triplicate in 10-point dose response (1:3 serial dilutions with a top concentration starting 300 nM); DMSO for upper limit (negative control) and staurosporine (1 uM) for lower limit (positive control) were also included. MCF7-WT cells were then supplemented with final 0.1 nM b-estradiol. After treating the cells, the assay plates were transferred back in the incubator at 37° C. and 5% CO2.
(§6) On day 8, cell viability was measured per vendor recommendations (CellTiter-Glo, Promega). Relative IC50 measurements were calculated as follow using a 4-parameter logistic derived from Levenburg Marquardt algorithm (IDBS XL Model 205 fit within A-base).
(In ATP-based viability assays light output follows the ATP content of the culture.)

A further assay deals with HCC1428-LTED cells. Kind of assay: In vitro anti-proliferation assay (CellTiter-Glo viability), HCC1428-LTED cells. As to conditions: viability on day 8, relative IC50, read-out: HCC 1428 IC50. The procedure: as §1, §2, §3, §4, §5, §6
The test system of the next assay is MCF7-Y537S cells. The experiment in a line: In vitro anti-proliferation assay (CellTiter-Glo viability), MCF7-Y537S cells. As to conditions: viability on day 8, relative IC50. Here is the method: as §1, §2, §3, §4, §5, §6

For `CN(C)C(=O)/C=C/CN1CCC(Cc2ccc(C3=C(c4ccc(Cl)cc4Cl)CCCc4cc(C(=O)O)ccc43)cc2)C1` (single isomer, unassigned; isomer 1) [Compound 18, (E)-8-(2,4-dichlorophenyl)-9-(4-((1-(4-(dimethylamino)-4-oxobut-2-en-1-yl)pyrrolidin-3-yl)methyl)phenyl)-6,7-dihydro-5H-benzo[7]annulene-3-carboxylic acid, Isomer 1], the IC50 in the assay on MCF7-WT cells was 26 nM; in the assay with HCC1428-LTED cells (Homo sapiens, HCC1428, 192 h) it was 0.3 nM; in the assay on MCF7-Y537S cells it was 59 nM.
Turning to `CN(C)C(=O)/C=C/CN1CCC(Cc2ccc(C3=C(c4ccc(Cl)cc4Cl)CCCc4cc(C(=O)O)ccc43)cc2)C1` (single isomer, unassigned; isomer 2) [Compound 19, (E)-8-(2,4-dichlorophenyl)-9-(4-((1-(4-(dimethylamino)-4-oxobut-2-en-1-yl)pyrrolidin-3-yl)methyl)phenyl)-6,7-dihydro-5H-benzo[7]annulene-3-carboxylic acid, Isomer 2], the 50% inhibitory concentration (IC50) in the assay on MCF7-WT cells was 9 nM; in the assay with HCC1428-LTED cells, 0.2 nM; with MCF7-Y537S cells, 20.7 nM.
On to `CN(C)C(=O)/C=C/CN1CC[C@H](Oc2ccc(C3=C(c4ccc(Cl)cc4Cl)CCCc4cc(C(=O)O)ccc43)cc2)C1` [Compound 1, (S,E)-8-(2,4-dichlorophenyl)-9-(4-((1-(4-(dimethylamino)-4-oxobut-2-en-1-yl)pyrrolidin-3-yl)oxy)phenyl)-6,7-dihydro-5H-benzo[7]annulene-3-carboxylic acid], for which the IC50 with MCF7-WT cells (Homo sapiens, MCF7, 192 h) was 14 nM; in the assay on HCC1428-LTED cells (Homo sapiens, HCC1428, 192 h), 0.7 nM; with MCF7-Y537S cells (Homo sapiens, MCF7, 192 h) it was ≥ 500 nM.
The matching figures for `CN(C)C(=O)/C=C/CN1CC[C@H](Oc2ccc(C3=C(c4ccc(F)cc4Cl)CCCc4cc(C(=O)O)ccc43)cc2)C1` [Compound 2, (S,E)-8-(2-chloro-4-fluorophenyl)-9-(4-((1-(4-(dimethylamino)-4-oxobut-2-en-1-yl)pyrrolidin-3-yl)oxy)phenyl)-6,7-dihydro-5H-benzo[7]annulene-3-carboxylic acid]: 10 nM, 0.4 nM and ≥ 500 nM.
The matching figures for `CN(C)C(=O)/C=C/CN1CC[C@H](Oc2ccc(C3=C(c4ccc(Cl)cc4F)CCCc4cc(C(=O)O)ccc43)cc2)C1` [Compound 3, (S,E)-8-(4-chloro-2-fluorophenyl)-9-(4-((1-(4-(dimethylamino)-4-oxobut-2-en-1-yl)pyrrolidin-3-yl)oxy)phenyl)-6,7-dihydro-5H-benzo[7]annulene-3-carboxylic acid]: 24 nM, 0.7 nM and 167 nM.
Taken in the same sequence, the figures for `CN(C)C(=O)/C=C/CN1CC[C@H](Oc2ccc(C3=C(c4cccc(F)c4Cl)CCCc4cc(C(=O)O)ccc43)cc2)C1` [Compound 4, (S,E)-8-(2-chloro-3-fluorophenyl)-9-(4-((1-(4-(dimethylamino)-4-oxobut-2-en-1-yl)pyrrolidin-3-yl)oxy)phenyl)-6,7-dihydro-5H-benzo[7]annulene-3-carboxylic acid] were 22 nM, 2 nM and ≥ 500 nM.
`Cc1ccc(C2=C(c3ccc(O[C@H]4CCN(C/C=C/C(=O)N(C)C)C4)cc3)c3ccc(C(=O)O)cc3CCC2)c(F)c1` [Compound 5, (S,E)-9-(4-((1-(4-(dimethylamino)-4-oxobut-2-en-1-yl)pyrrolidin-3-yl)oxy)phenyl)-8-(2-fluoro-4-methylphenyl)-6,7-dihydro-5H-benzo[7]annulene-3-carboxylic acid]: the IC50 is 3 nM in the assay on MCF7-WT cells (Homo sapiens, MCF7, 192 h); 0.2 nM in the assay with HCC1428-LTED cells (Homo sapiens, HCC1428, 192 h); 76 nM in the assay with MCF7-Y537S cells (Homo sapiens, MCF7, 192 h).
The matching figures for `CN(C)C(=O)/C=C/CN1CC[C@H](Oc2ccc(C3=C(c4ccccc4)CCCc4cc(C(=O)O)ccc43)cc2)C1` [Compound 6, (S,E)-9-(4-((1-(4-(dimethylamino)-4-oxobut-2-en-1-yl)pyrrolidin-3-yl)oxy)phenyl)-8-phenyl-6,7-dihydro-5H-benzo[7]annulene-3-carboxylic acid]: 14 nM, 0.7 nM and ≥ 500 nM.
Taken in the same sequence, the figures for `Cc1ccc(C2=C(c3ccc(O[C@H]4CCN(C/C=C/C(=O)N(C)C)C4)cc3)c3ccc(C(=O)O)cc3CCC2)cc1Cl` [Compound 7, (S,E)-8-(3-chloro-4-methylphenyl)-9-(4-((1-(4-(dimethylamino)-4-oxobut-2-en-1-yl)pyrrolidin-3-yl)oxy)phenyl)-6,7-dihydro-5H-benzo[7]annulene-3-carboxylic acid] were 28 nM, 2 nM and ≥ 500 nM.
Taken in the same sequence, the figures for `Cc1ccc(C2=C(c3ccc(O[C@H]4CCN(C/C=C/C(=O)N(C)C)C4)cc3)c3ccc(C(=O)O)cc3CCC2)c(C)c1` [Compound 8, (S,E)-9-(4-((1-(4-(dimethylamino)-4-oxobut-2-en-1-yl)pyrrolidin-3-yl)oxy)phenyl)-8-(2,4-dimethylphenyl)-6,7-dihydro-5H-benzo[7]annulene-3-carboxylic acid] were 3 nM, 0.2 nM and 87 nM.
Consider `CN(C)C(=O)/C=C/CN1CC[C@H](Oc2ccc(C3=C(c4ccccc4Cl)CCCc4cc(C(=O)O)ccc43)cc2)C1` [Compound 9, (S,E)-8-(2-chlorophenyl)-9-(4-((1-(4-(dimethylamino)-4-oxobut-2-en-1-yl)pyrrolidin-3-yl)oxy)phenyl)-6,7-dihydro-5H-benzo[7]annulene-3-carboxylic acid], for which the 50% inhibitory concentration (IC50) with MCF7-WT cells (Homo sapiens, MCF7, 192 h) worked out at 4 nM; in the assay on HCC1428-LTED cells (Homo sapiens, HCC1428, 192 h), 0.2 nM; in the assay with MCF7-Y537S cells (Homo sapiens, MCF7, 192 h) it was 87 nM.
With `COc1ccc(C2=C(c3ccc(O[C@H]4CCN(C/C=C/C(=O)N(C)C)C4)cc3)c3ccc(C(=O)O)cc3CCC2)c(F)n1` [Compound 10, (S,E)-9-(4-((1-(4-(dimethylamino)-4-oxobut-2-en-1-yl)pyrrolidin-3-yl)oxy)phenyl)-8-(2-fluoro-6-methoxypyridin-3-yl)-6,7-dihydro-5H-benzo[7]annulene-3-carboxylic acid], the half-maximal inhibitory concentration (IC50) in the assay on MCF7-WT cells (Homo sapiens, MCF7, 192 h) is 8 nM; with HCC1428-LTED cells (Homo sapiens, HCC1428, 192 h) it was 0.3 nM; with MCF7-Y537S cells (Homo sapiens, MCF7, 192 h), ≥ 500 nM.
Taken in the same sequence, the figures for `Cc1ccc(C2=C(c3ccc(O[C@H]4CCN(C/C=C/C(=O)N(C)C)C4)cc3)c3ccc(C(=O)O)cc3CCC2)c(Cl)c1` [Compound 11, (S,E)-8-(2-chloro-4-methylphenyl)-9-(4-((1-(4-(dimethylamino)-4-oxobut-2-en-1-yl)pyrrolidin-3-yl)oxy)phenyl)-6,7-dihydro-5H-benzo[7]annulene-3-carboxylic acid] were 2 nM, 0.1 nM and 204 nM.
Taken in the same sequence, the figures for `CN(C)C(=O)/C=C/CN1CC(Oc2ccc(C3=C(c4ccc(Cl)cc4Cl)CCCc4cc(C(=O)O)ccc43)cc2)C1` [Compound 12, (E)-8-(2,4-dichlorophenyl)-9-(4-((1-(4-(dimethylamino)-4-oxobut-2-en-1-yl)azetidin-3-yl)oxy)phenyl)-6,7-dihydro-5H-benzo[7]annulene-3-carboxylic acid] were 126 nM, 3 nM and ≥ 500 nM.
For the compound `CN(C)C(=O)/C=C/CN1CC(Cc2ccc(C3=C(c4ccc(Cl)cc4Cl)CCCc4cc(C(=O)O)ccc43)cc2)C1` [Compound 13, (E)-8-(2,4-dichlorophenyl)-9-(4-((1-(4-(dimethylamino)-4-oxobut-2-en-1-yl)azetidin-3-yl)methyl)phenyl)-6,7-dihydro-5H-benzo[7]annulene-3-carboxylic acid compound with 2,2,2-trifluoroacetic acid (1:1)], the IC50 in the assay with MCF7-WT cells (Homo sapiens, MCF7, 192 h) stood at 3 nM; with HCC1428-LTED cells (Homo sapiens, HCC1428, 192 h), 0.01 nM; in the assay on MCF7-Y537S cells (Homo sapiens, MCF7, 192 h), 9 nM.
In the case of `CN(C)C(=O)/C=C/CN1CC(=Cc2ccc(C3=C(c4ccc(Cl)cc4Cl)CCCc4cc(C(=O)O)ccc43)cc2)C1` [Compound 14, (E)-8-(2,4-dichlorophenyl)-9-(4-((1-(4-(dimethylamino)-4-oxobut-2-en-1-yl)azetidin-3-ylidene)methyl)phenyl)-6,7-dihydro-5H-benzo[7]annulene-3-carboxylic acid], the IC50 in the assay on MCF7-WT cells (Homo sapiens, MCF7, 192 h) is 101 nM; in the assay with HCC1428-LTED cells (Homo sapiens, HCC1428, 192 h), 0.4 nM; in the assay on MCF7-Y537S cells (Homo sapiens, MCF7, 192 h), 0.4 nM.
On to `CN(C)C(=O)/C=C/CN1CC[C@@H](Oc2ccc(C3=C(c4ccc(Cl)cc4Cl)CCCc4cc(C(=O)O)ccc43)cc2)C1` [Compound 15, (R,E)-8-(2,4-dichlorophenyl)-9-(4-((1-(4-(dimethylamino)-4-oxobut-2-en-1-yl)pyrrolidin-3-yl)oxy)phenyl)-6,7-dihydro-5H-benzo[7]annulene-3-carboxylic acid], for which the concentration for half-maximal inhibition (IC50) was 53 nM in the assay on MCF7-WT cells (Homo sapiens, MCF7, 192 h); 5 nM with HCC1428-LTED cells (Homo sapiens, HCC1428, 192 h); 186 nM in the assay with MCF7-Y537S cells (Homo sapiens, MCF7, 192 h).
